Measured values reported in patent publication US20180256673A1, “METHODS FOR TREATING FUNGAL INFECTIONS” (priority 2015, published 2018).
Converted amounts (≈) assume the structure as drawn. “And” between values parts separate entries of the source, which are not always exact repeats. Equal values may be shown once. Read-outs that look alike come from different tables or passages of the source.

Columns and labels:
[1] = system: C. glabrata ATCC 90030, ATCC 2001; assay type: cell-based, Candida glabrata; details: for Freq. (replicate mutation frequency): replicate plates 1-3; for Plate concentration: SDA, minimum concentration to cleanly inhibit growth
Experimental: (§1) Spontaneous mutant selection. […] Three individual colonies from each strain were used to start cultures in RPMI. […] One milliliter aliquots were spread onto SDA plates containing drug with sterile glass beads. Starting viable count was enumerated by triplicate plating of serial dilutions of the starting inoculum. […] Glycerol stocks of putative mutant colonies were stored at −80° C. […] Spontaneous mutation frequencies were calculated by dividing the number of resistant colonies on a given plate by the starting inoculum plated. A subset of mutants (weighted heavily towards those selected with CMP1) were then evaluated by MIC and sequencing of FKS gene hot spot regions.

C. parapsilosis CP02 [2] = experiment: microbe, parasite or virus in culture; assay type: cell-based, Candida parapsilosis; details: for MIC: Lodderomyces parapsilosis
C. albicans NRRL Y-477 = assay type: cell-based, Candida albicans
Experimental: as §1

Candida parapsilosis = experiment: Broth microdilution of invasive fungal isolates (CLSI M27-A3/M38-A2); assay type: cell-based
Candida tropicalis = experiment: as above; assay type: cell-based
[3] = system: C. parapsilosis vaginal isolates; experiment: Susceptibility testing of VVC clinical isolates at pH 7 and 4 (CLSI M27-A3); assay type: cell-based, Candida parapsilosis; details: 14 isolates, read-out: MIC90
[4] = system: C. glabrata vaginal isolates; experiment: as above; assay type: cell-based, Candida glabrata; details: for MIC90: Nakaseomyces glabratus, 21 isolates, read-out: MIC90
C. krusei ATCC 6258 = assay type: cell-based, Candida krusei
Experimental: as §1

C. parapsilosis CP02 [5] = assay type: cell-based, Candida parapsilosis
Experimental: as §1

Aspergillus fumigatus = experiment: Broth microdilution of invasive fungal isolates (CLSI M27-A3/M38-A2), MEC; assay type: cell-based; details: 56 isolates
Candida orthopsilosis = experiment: Broth microdilution of invasive fungal isolates (CLSI M27-A3/M38-A2); assay type: cell-based; details: 10 isolates
Candida dubliniensis = experiment: as above; assay type: cell-based; details: 11 isolates
[6] = system: C. krusei ATCC 6258, ATCC 14243; experiment: Time-kill assay in vagina-simulative medium pH 4.0 (Table 20); assay type: cell-based, Candida krusei
[7] = system: azole-resistant C. albicans (R357); experiment: Immunosuppressed rat model of vulvovaginal candidiasis, vaginal CFU; assay type: in vivo, Candida albicans; details: oral 20 mg/kg once daily for three days; days 5 and 12
[8] = SDA, minimum concentration to cleanly inhibit growth

Structure (SMILES): CC[C@H](C)C[C@H](C)CCCCCCCCC(=O)N[C@H]1C[C@@H](O)[C@@H](NCCN)NC(=O)[C@@H]2[C@@H](O)CCN2C(=O)[C@H]([C@H](O)CCN)NC(=O)[C@H]([C@H](O)[C@@H](O)c2ccc(O)cc2)NC(=O)[C@@H]2C[C@@H](O)CN2C(=O)[C@H]([C@@H](C)O)NC1=O [CAS, caspofungin]
- Median mutation frequency ([1]; ATCC 2001): 3.16E−08
- Freq. (replicate mutation frequency) ([1]; ATCC 2001): 3.16E−08 and 2.92E−08 and 3.50E−08
- Median mutation frequency ([1]; ATCC 90030): 3.45E−07
- Freq. (replicate mutation frequency) ([1]; ATCC 90030): 4.85E−07 and 3.45E−07 and 2.57E−07
- Plate concentration ([1]; ATCC 2001): 0.5 µg/mL
- Plate concentration ([1]; ATCC 90030): 0.5 µg/mL
- MIC fold-shift (C. parapsilosis CP02 [2]; CP02, WT to P20): 2
- MIC (C. parapsilosis CP02 [2]; CP02, CP02 P20-1, selecting drug ANID): 0.5 µg/mL (≈ 0.457 µM)
- MIC (C. parapsilosis CP02 [2]; CP02, CP02 P20-1, selecting drug CAS): 1 µg/mL (≈ 0.915 µM)
- MIC (C. parapsilosis CP02 [2]; CP02, CP02 P20-1, selecting drug CMP1): 1 µg/mL (≈ 0.915 µM)
- MIC (C. parapsilosis CP02 [2]; CP02, read-out: MIC P20, CP02, total population after 20 passages with the selecting drug, MIC of selecting drug): 1 µg/mL
- Median mutation frequency (C. albicans NRRL Y-477): 1.14E−08
- Plate concentration (C. albicans NRRL Y-477; [8]): 0.25 µg/mL
- Freq. (replicate mutation frequency) (C. albicans NRRL Y-477; replicate plates 1-3): 1.25E−08 and 1.14E−08 and 7.81E−09
- Cumulative % of isolates inhibited at MIC 0.25 μg/mL (Candida parapsilosis; 92 isolates): (33.7) %
- Cumulative % of isolates inhibited at MIC 0.5 μg/mL (Candida parapsilosis; 92 isolates): (87.0) %
- Cumulative % of isolates inhibited at MIC 1 μg/mL (Candida parapsilosis; 92 isolates): (98.9) %
- Cumulative % of isolates inhibited at MIC 2 μg/mL (Candida parapsilosis; 92 isolates): (100.0) %
- Number of isolates inhibited at MIC 0.25 μg/mL (Candida parapsilosis; 92 isolates): 31
- Number of isolates inhibited at MIC 0.5 μg/mL (Candida parapsilosis; 92 isolates): 49
- Number of isolates inhibited at MIC 1 μg/mL (Candida parapsilosis; 92 isolates): 11
- Number of isolates inhibited at MIC 2 μg/mL (Candida parapsilosis; 92 isolates): 1
- MIC50 (Candida parapsilosis; Lodderomyces parapsilosis, 92 isolates, read-out: MIC50): 0.5 µg/mL (≈ 0.457 µM)
- MIC90 (Candida parapsilosis; Lodderomyces parapsilosis, 92 isolates, read-out: MIC90): 1 µg/mL (≈ 0.915 µM)
- Cumulative % of isolates inhibited at MIC 0.015 μg/mL (Candida tropicalis; 51 isolates): (23.5) %
- Cumulative % of isolates inhibited at MIC 0.03 μg/mL (Candida tropicalis; 51 isolates): (68.6) %
- Cumulative % of isolates inhibited at MIC 0.06 μg/mL (Candida tropicalis; 51 isolates): (98.0) %
- Cumulative % of isolates inhibited at MIC 0.12 μg/mL (Candida tropicalis; 51 isolates): (100.0) %
- Number of isolates inhibited at MIC 0.015 μg/mL (Candida tropicalis; 51 isolates): 12
- Number of isolates inhibited at MIC 0.03 μg/mL (Candida tropicalis; 51 isolates): 23
- Number of isolates inhibited at MIC 0.06 μg/mL (Candida tropicalis; 51 isolates): 15
- Number of isolates inhibited at MIC 0.12 μg/mL (Candida tropicalis; 51 isolates): 1
- MIC50 (Candida tropicalis; Candida tropicalis, 51 isolates, read-out: MIC50): 0.03 µg/mL (≈ 0.0274 µM)
- MIC90 (Candida tropicalis; Candida tropicalis, 51 isolates, read-out: MIC90): 0.06 µg/mL (≈ 0.0549 µM)
- MIC90 ([3]; pH 4, 24 h): 1 µg/mL (≈ 0.915 µM)
- MIC90 ([3]; pH 4, 48 h): 4 µg/mL (≈ 3.66 µM)
- MIC90 ([3]; pH 7, 24 h): 1 µg/mL (≈ 0.915 µM)
- MIC90 ([3]; pH 7, 48 h): 2 µg/mL (≈ 1.83 µM)
- MIC90 ([4]; pH 4, 24 h): 1 µg/mL (≈ 0.915 µM)
- MIC90 ([4]; pH 4, 48 h): 2 µg/mL (≈ 1.83 µM)
- MIC90 ([4]; pH 7, 24 h): 1 µg/mL (≈ 0.915 µM)
- MIC90 ([4]; pH 7, 48 h): 2 µg/mL (≈ 1.83 µM)
- Median mutation frequency (C. krusei ATCC 6258): <3.86E−09
- Plate concentration (C. krusei ATCC 6258; [8]): 0.5 µg/mL
- Freq. (replicate mutation frequency) (C. krusei ATCC 6258; replicate plates 1-3): <3.86E−09 (2×) and 3.51E−09
- Median mutation frequency (C. parapsilosis CP02 [5]): <1.04E−08
- Plate concentration (C. parapsilosis CP02 [5]; [8]): 1 µg/mL
- Freq. (replicate mutation frequency) (C. parapsilosis CP02 [5]; replicate plates 1-3): <1.04E−08 (2×) and <9.62E−09
- Cumulative % of isolates inhibited at MEC 0.015 μg/mL (Aspergillus fumigatus): (32.1) %
- Cumulative % of isolates inhibited at MEC 0.03 μg/mL (Aspergillus fumigatus): (94.6) %
- Cumulative % of isolates inhibited at MEC 0.06 μg/mL (Aspergillus fumigatus): (100.0) %
- Number of isolates inhibited at MEC 0.015 μg/mL (Aspergillus fumigatus): 18
- Number of isolates inhibited at MEC 0.03 μg/mL (Aspergillus fumigatus): 35
- Number of isolates inhibited at MEC 0.06 μg/mL (Aspergillus fumigatus): 3
- Cumulative % of isolates inhibited at MIC 0.06 μg/mL (Candida orthopsilosis): (10.0) %
- Cumulative % of isolates inhibited at MIC 0.12 μg/mL (Candida orthopsilosis): (40.0) %
- Cumulative % of isolates inhibited at MIC 0.25 μg/mL (Candida orthopsilosis): (70.0) %
- Cumulative % of isolates inhibited at MIC 0.5 μg/mL (Candida orthopsilosis): (100.0) %
- Number of isolates inhibited at MIC 0.06 μg/mL (Candida orthopsilosis): 1
- Number of isolates inhibited at MIC 0.12 μg/mL (Candida orthopsilosis): 3
- Number of isolates inhibited at MIC 0.25 μg/mL (Candida orthopsilosis): 3
- Number of isolates inhibited at MIC 0.5 μg/mL (Candida orthopsilosis): 3
- MIC50 (Candida orthopsilosis; Lodderomyces orthopsilosis, read-out: MIC50): 0.25 µg/mL (≈ 0.229 µM)
- MIC90 (Candida orthopsilosis; Lodderomyces orthopsilosis, read-out: MIC90): 0.5 µg/mL (≈ 0.457 µM)
- Cumulative % of isolates inhibited at MIC 0.015 μg/mL (Candida dubliniensis): (9.1) %
- Cumulative % of isolates inhibited at MIC 0.03 μg/mL (Candida dubliniensis): (54.5) %
- Cumulative % of isolates inhibited at MIC 0.06 μg/mL (Candida dubliniensis): (100.0) %
- Number of isolates inhibited at MIC 0.015 μg/mL (Candida dubliniensis): 1
- Number of isolates inhibited at MIC 0.03 μg/mL (Candida dubliniensis): 5
- Number of isolates inhibited at MIC 0.06 μg/mL (Candida dubliniensis): 5
- MIC50 (Candida dubliniensis; Candida dubliniensis, read-out: MIC50): 0.03 µg/mL (≈ 0.0274 µM)
- MIC90 (Candida dubliniensis; Candida dubliniensis, read-out: MIC90): 0.06 µg/mL (≈ 0.0549 µM)

Structure (SMILES): OC(Cn1cncn1)(Cn1cncn1)c1ccc(F)cc1F [FLU, fluconazole]
- Susceptibility to FLU (S/R) ([6]; C. krusei ATCC 6258): R
- Susceptibility to FLU (S/R) ([6]; C. krusei ATCC 14243): R
- % of isolates with fluconazole resistance (Candida parapsilosis; CLSI breakpoints): 4.3%
- % of isolates with fluconazole resistance (Candida tropicalis; CLSI breakpoints): 2.0%
- MIC90 ([3]; pH 4, 24 h): 8 µg/mL (≈ 26.1 µM)
- MIC90 ([3]; pH 4, 48 h): > 64 µg/mL
- MIC90 ([3]; pH 7, 48 h): 32 µg/mL (≈ 104 µM)
- Number of isolates at MIC 2 μg/mL ([4]; 21 VVC isolates, 24 h, pH 4): 5
- Number of isolates at MIC 4 μg/mL ([4]; 21 VVC isolates, 24 h, pH 4): 3
- Number of isolates at MIC ≥4 μg/mL ([4]; 21 VVC isolates, 24 h, pH 4): 13
- Number of isolates at MIC 0.5 μg/mL ([4]; 21 VVC isolates, 24 h, pH 7): 4
- Number of isolates at MIC 1 μg/mL ([4]; 21 VVC isolates, 24 h, pH 7): 2
- Number of isolates at MIC 2 μg/mL ([4]; 21 VVC isolates, 24 h, pH 7): 5
- Number of isolates at MIC 4 μg/mL ([4]; 21 VVC isolates, 24 h, pH 7): 2
- Number of isolates at MIC ≥4 μg/mL ([4]; 21 VVC isolates, 24 h, pH 7): 8
- Number of isolates at MIC 2 μg/mL ([4]; 21 VVC isolates, 48 h, pH 4): 1
- Number of isolates at MIC 4 μg/mL ([4]; 21 VVC isolates, 48 h, pH 4): 2
- Number of isolates at MIC ≥4 μg/mL ([4]; 21 VVC isolates, 48 h, pH 4): 18
- Number of isolates at MIC 1 μg/mL ([4]; 21 VVC isolates, 48 h, pH 7): 3
- Number of isolates at MIC 2 μg/mL ([4]; 21 VVC isolates, 48 h, pH 7): 4
- Number of isolates at MIC 4 μg/mL ([4]; 21 VVC isolates, 48 h, pH 7): 2
- Number of isolates at MIC ≥4 μg/mL ([4]; 21 VVC isolates, 48 h, pH 7): 12
- MIC90 ([4]; pH 4, 24 h): 64 µg/mL (≈ 209 µM)
- MIC90 ([4]; pH 4, 48 h): > 64 µg/mL
- MIC90 ([4]; pH 7, 24 h): 16 µg/mL (≈ 52.2 µM)
- MIC90 ([4]; pH 7, 48 h): > 64 µg/mL
- reduction in vaginal CFU compared with no treatment control [7]: < 1 log-fold
